{"source": "patent US12516292B2", "about": "“Methods of producing modified natural killer cells and methods of use” (The United States of America, as represented by the …, priority 2016, dated 2026)", "tested_on": "human NK cells from PBMC", "test": "Fold expansion and overall yield of transduced NK cells in culture", "format": "cell-based", "conditions": "BX795 (1.5 μM) during transduction combined with pre-stimulation with SMI-LCL feeder cells (FIG. 28A, 28B)"}
{"smiles": "O=C(NCCCNc1nc(Nc2cccc(NC(=O)N3CCCC3)c2)ncc1I)c1cccs1", "note": "[BX795]", "values": [{"measurement": "subsequent proliferation of lentiviral transduced ex-vivo expanded human NK cells", "value": "increased subsequent proliferation"}]}
